Laboratory results: US7687484B2, “Transporter enhanced corticosteroid activity” (priority 2006, dated 2010)
“Also recorded” adds a separate entry of the source. Read-outs that look alike come from different tables or passages of the source. Each block holds one molecule with its values, some of them ahead of it.

Experiments:
[1] = logP reported in literature; cited from earlier work
glucocorticoid receptor = biological target: T1, glucocorticoid receptor (Homo sapiens, UniProt P04150); settings: relative to dexamethasone = 100; average of all values if multiple available; cited from earlier work
T1 sequence (P04150 1-777): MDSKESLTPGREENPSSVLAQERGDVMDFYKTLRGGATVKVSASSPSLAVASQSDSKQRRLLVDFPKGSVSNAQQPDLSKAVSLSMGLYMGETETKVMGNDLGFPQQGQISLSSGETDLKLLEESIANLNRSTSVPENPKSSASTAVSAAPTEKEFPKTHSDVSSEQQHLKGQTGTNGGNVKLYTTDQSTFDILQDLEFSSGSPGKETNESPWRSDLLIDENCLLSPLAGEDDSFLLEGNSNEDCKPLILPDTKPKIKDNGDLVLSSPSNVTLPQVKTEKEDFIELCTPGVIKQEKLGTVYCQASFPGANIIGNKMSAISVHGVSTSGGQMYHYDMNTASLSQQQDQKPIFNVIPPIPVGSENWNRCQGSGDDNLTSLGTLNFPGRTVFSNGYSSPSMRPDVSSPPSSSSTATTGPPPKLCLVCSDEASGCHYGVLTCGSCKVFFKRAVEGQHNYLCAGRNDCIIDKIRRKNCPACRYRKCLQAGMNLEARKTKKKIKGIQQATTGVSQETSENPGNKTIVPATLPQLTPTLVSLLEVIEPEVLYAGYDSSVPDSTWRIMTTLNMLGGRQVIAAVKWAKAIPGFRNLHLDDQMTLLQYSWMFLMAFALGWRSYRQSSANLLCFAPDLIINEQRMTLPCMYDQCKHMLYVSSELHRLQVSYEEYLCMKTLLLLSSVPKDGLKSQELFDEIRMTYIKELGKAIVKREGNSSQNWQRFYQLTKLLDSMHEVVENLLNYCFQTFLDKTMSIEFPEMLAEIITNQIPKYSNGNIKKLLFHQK

[2] = biological target: T2, Corticosteroid Binding Globulin (CBG), transcortin (Homo sapiens, UniProt P08185); settings: cited from earlier work; for Class: CBG binding activity class; for Log 1/K: CBG binding affinity, literature data
T2 sequence (P08185 23-405): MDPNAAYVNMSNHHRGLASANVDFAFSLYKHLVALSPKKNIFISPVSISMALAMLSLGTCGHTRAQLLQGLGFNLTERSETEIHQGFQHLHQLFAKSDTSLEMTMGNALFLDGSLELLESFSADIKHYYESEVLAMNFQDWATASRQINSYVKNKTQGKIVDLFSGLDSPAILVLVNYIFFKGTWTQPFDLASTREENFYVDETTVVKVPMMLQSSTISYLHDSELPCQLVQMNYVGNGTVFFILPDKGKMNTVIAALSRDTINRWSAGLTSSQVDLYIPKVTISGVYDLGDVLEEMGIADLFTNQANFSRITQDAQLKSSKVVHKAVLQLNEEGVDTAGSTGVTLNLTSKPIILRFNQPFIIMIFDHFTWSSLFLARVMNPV

transcortin (CBG) = biological target: T3, transcortin (CBG) (Homo sapiens, UniProt P08185); assay: Binding of corticosteroids to transcortin: 3H-cortisol competition in charcoal-treated diluted plasma
T3 construct: from tissue; host or cells: plasma from venous blood of healthy volunteers, charcoal-treated, diluted 100-fold
T3 sequence (P08185 23-405): T2 sequence (P08185 23-405)
Description: Experimental procedure: Venous blood was collected from healthy volunteers into heparin-containing tubes (5 Us/100 ml serum) and cells were separated from plasma by centrifugation (1500 g for 15 min). […] Charcoal-treated plasma was diluted 100-fold with binding buffer (10 mM Tris-HCl; 2 mM DTT (dithiotreitol); 1.5 mM EDTA; 0.02 M Na2MoO4; 10% Glycerol; pH 7.4) and was stored aliquoted at −80° C. […] The assay ingredients were mixed and the tubes were incubated for 1 hour on ice. At the end of the incubation, 0.2 ml of charcoal suspension (0.5% Norit A and 0.05% BSA) was added to each tube. The tubes were briefly agitated and incubated for an additional 10 min at 0° C. They were then centrifuged for 10 min at 15 000 g, and the same aliquots from the clear supernatants were quantitatively decanted into counting vials and combined with 3 ml of toluene-based scintillation fluid. […] Specific binding and IC50-values were calculated.

[3] = test system: forearms of human volunteers; assay: Human vasoconstriction (blanching) testing; assay type: in vivo; set-up: key to Vasoconstriction activity (total score of 4 tests): sum of 4 tests, each 0 = normal skin to 4 = very intense pallor; settings: for Vasoconstriction activity alone (in words): by itself, concentration range 0.1 to 1 mM, human skin
Description: Solutions of LE, HC and PRN (0.1 or 1 mM) alone, or mixtures of LE and HC (0.1+0.1 mM, or 1+1 mM), or LE and PRN (0.1+0.1 mM, or 1+1 mM) were prepared with a vehicle containing absolute ethanol and propylene glycol (9:1). […] After evaporation of ethanol (20 min), the films were applied to the forearms of human volunteers for 4 hours. Subsequently, the vasoconstriction reaction was read and judged by the appearance of pallor at various time intervals after the removal of the discs and films. The grading scale was as follows: 0, normal skin; 1, slight pallor; 2, pallor with at least two corners outlined; 3, even pallor with a clear outlined of the application sites; 4, very intense pallor. Due to the relatively high variations in response between the volunteers, a total score of 4 tests at each time point was taken for the activity evaluation.

[4] = 3 nM 3H-cortisol, 1 hour on ice, plasma diluted 100-fold, read-out: IC50-values (nM) average ± SEM (n)
[5] = estimated, unpublished results Bodor, Kurucz 2006, read-out: CBG Est. IC50
[6] = 0.1 mM, 2 hr after removal, 4 h application
[7] = 1 mM, 2 hr after removal, 4 h application

Compound: C[C@H]1C[C@H]2[C@@H]3CCC4=CC(=O)C=C[C@]4(C)[C@@]3(F)[C@@H](O)C[C@]2(C)[C@@]1(O)C(=O)CO [Betamethasone]
logP [1]: 1.94

Compound: C[C@]12C[C@H](O)[C@H]3[C@@H](CCC4=CC(=O)CC[C@@]43C)[C@@H]1CC[C@@H]2C(=O)CO [Corticosterone]
rBA (relative receptor binding affinity) (glucocorticoid receptor): 35
logP [1]: 1.94
Class [2]: 1
Log 1/K [2]: −7.881

IC50 (transcortin (CBG); [4]): 4500 ± 973 nM
Compound: CCOC(=O)[C@@]1(OC(=O)C(Cl)Cl)CC[C@H]2[C@@H]3CCC4=CC(=O)C=C[C@]4(C)[C@H]3[C@@H](O)C[C@@]21C [Etiprednol dicloacetate (BNP-166), Etiprednol dicloacetate]
rBA (relative receptor binding affinity) (glucocorticoid receptor): 200

Compound: CCC(=O)O[C@]1(C(=O)CO)CC[C@H]2[C@@H]3CCC4=CC(=O)CC[C@]4(C)[C@H]3[C@@H](O)C[C@@]21C [Hydrocortisone 17-propionate]
rBA (relative receptor binding affinity) (glucocorticoid receptor): 79
logP [1]: 2.70

IC50 (transcortin (CBG); [5]): > 10000 nM
Compound: CCCC1O[C@@H]2C[C@H]3[C@@H]4CCC5=CC(=O)C=C[C@]5(C)[C@H]4[C@@H](O)C[C@]3(C)[C@]2(C(=O)CO)O1 (stereo partly shown) [budesonide (BUD), budesonide]

Compound: C[C@@H]1C[C@H]2[C@@H]3CCC4=CC(=O)C=C[C@]4(C)[C@@]3(Cl)[C@@H](O)C[C@]2(C)[C@@]1(O)C(=O)CCl [Mometasone]
rBA (relative receptor binding affinity) (glucocorticoid receptor): 88

IC50 (transcortin (CBG); [5]): > 10000 nM
Compound: C[C@@H]1C[C@H]2[C@@H]3CCC4=CC(=O)C=C[C@]4(C)[C@@]3(Cl)[C@@H](O)C[C@]2(C)[C@@]1(OC(=O)c1ccco1)C(=O)CCl [Mometasone furoate]

Compound: C[C@]12C=CC(=O)C=C1CCC1C2[C@@H](O)C[C@@]2(C)C1CC[C@]2(O)C(=O)CO (stereo partly shown) [Prednisolone, prednisolone]
IC50 (transcortin (CBG); CBG Est. IC50 (nM), estimated, unpublished results Bodor, Kurucz 2006): 7 nM
IC50 (transcortin (CBG); IC50-values (nM) average ± SEM (n), 3 nM 3H-cortisol, 1 hour on ice, plasma diluted 100-fold): 6.7 ± 1.6 nM
Class [2]: 1
Vasoconstriction activity (total score of 4 tests) [3, 6]: 0
Vasoconstriction activity (total score of 4 tests) ([3]; 0.1 mM, 4 hr after removal): 0
Vasoconstriction activity (total score of 4 tests) ([3]; 0.1 mM, 6 hr after removal): 0
Vasoconstriction activity (total score of 4 tests) ([3]; 0.1 mM, 8 hr after removal): 0
Vasoconstriction activity (total score of 4 tests) ([3]; 0.1 mM, 10 hr after removal): 0
Vasoconstriction activity (total score of 4 tests) ([3]; 0.1 mM, 16 hr after removal): 0
Vasoconstriction activity (total score of 4 tests) ([3]; 0.1 mM, 18 hr after removal): 0
Vasoconstriction activity (total score of 4 tests) ([3]; 0.1 mM, 24 hr after removal): 0
Vasoconstriction activity (total score of 4 tests) [3, 7]: 0
Vasoconstriction activity (total score of 4 tests) ([3]; 1 mM, 4 hr after removal): 0
Vasoconstriction activity (total score of 4 tests) ([3]; 1 mM, 6 hr after removal): 0
Vasoconstriction activity (total score of 4 tests) ([3]; 1 mM, 8 hr after removal): 0
Vasoconstriction activity (total score of 4 tests) ([3]; 1 mM, 10 hr after removal): 0
Vasoconstriction activity (total score of 4 tests) ([3]; 1 mM, 16 hr after removal): 0
Vasoconstriction activity (total score of 4 tests) ([3]; 1 mM, 18 hr after removal): 0
Vasoconstriction activity (total score of 4 tests) ([3]; 1 mM, 24 hr after removal): 0
Vasoconstriction activity alone (in words) ([3]; listed as PRN): do not yield any detectable activity; also recorded: no activity

Compound: CC1(C)O[C@@H]2C[C@H]3[C@@H]4C[C@H](F)C5=CC(=O)C=C[C@]5(C)[C@H]4[C@@H](O)C[C@]3(C)[C@]2(C(=O)CO)O1 [Flunisolide]
rBA (relative receptor binding affinity) (glucocorticoid receptor): 165
logP [1]: 2.28

Compound: CCC(=O)O[C@]1(C(=O)CCl)[C@@H](C)C[C@H]2[C@@H]3CCC4=CC(=O)C=C[C@]4(C)[C@@]3(F)[C@@H](O)C[C@@]21C [Clobetasol propionate]
rBA (relative receptor binding affinity) (glucocorticoid receptor): 6300
logP [1]: 3.83

IC50 (transcortin (CBG); [4]): 5.9 ± 1.4 nM
Compound: COC(=O)[C@@]1(O)CCC2C3CCC4=CC(=O)CC[C@]4(C)C3[C@@H](O)C[C@@]21C (stereo partly shown) [CA-Me GYKI-25806]

Compound: CCCC(=O)O[C@]1(C(=O)CO)CC[C@H]2[C@@H]3CCC4=CC(=O)CC[C@]4(C)[C@H]3[C@@H](O)C[C@@]21C [Hydrocortisone 17-butyrate]
rBA (relative receptor binding affinity) (glucocorticoid receptor): 95

Compound: CC(=O)O[C@]1(C(=O)CO)CC[C@H]2[C@@H]3CCC4=CC(=O)CC[C@]4(C)[C@H]3[C@@H](O)C[C@@]21C [Hydrocortisone 17-acetate]
rBA (relative receptor binding affinity) (glucocorticoid receptor): 41

IC50 (transcortin (CBG); [5]): > 10000 nM
Compound: CCC(=O)O[C@]1(C(=O)SCF)[C@H](C)C[C@H]2[C@@H]3C[C@H](F)C4=CC(=O)C=C[C@]4(C)[C@@]3(F)[C@@H](O)C[C@@]21C [Fluticasone propionate]
logP [1]: 4.20

Compound: C[C@]12CCC(=O)C=C1CCC1C2[C@@H](O)C[C@@]2(C)C1CC[C@]2(O)C(=O)CO (stereo partly shown) [Hydrocortisone (cortisol), hydrocortisone]
logP [1]: 1.61
IC50 (transcortin (CBG); [4]): 69 ± 8 nM
IC50 (transcortin (CBG); [5]): 70 nM
Class [2]: 1
Vasoconstriction activity (total score of 4 tests) [3, 6]: 0
Vasoconstriction activity (total score of 4 tests) ([3]; 0.1 mM, 4 hr after removal): 0
Vasoconstriction activity (total score of 4 tests) ([3]; 0.1 mM, 6 hr after removal): 0
Vasoconstriction activity (total score of 4 tests) ([3]; 0.1 mM, 8 hr after removal): 0
Vasoconstriction activity (total score of 4 tests) ([3]; 0.1 mM, 10 hr after removal): 0
Vasoconstriction activity (total score of 4 tests) ([3]; 0.1 mM, 16 hr after removal): 0
Vasoconstriction activity (total score of 4 tests) ([3]; 0.1 mM, 18 hr after removal): 0
Vasoconstriction activity (total score of 4 tests) ([3]; 0.1 mM, 24 hr after removal): 0
Vasoconstriction activity (total score of 4 tests) [3, 7]: 0
Vasoconstriction activity (total score of 4 tests) ([3]; 1 mM, 4 hr after removal): 0
Vasoconstriction activity (total score of 4 tests) ([3]; 1 mM, 6 hr after removal): 0
Vasoconstriction activity (total score of 4 tests) ([3]; 1 mM, 8 hr after removal): 0
Vasoconstriction activity (total score of 4 tests) ([3]; 1 mM, 10 hr after removal): 0
Vasoconstriction activity (total score of 4 tests) ([3]; 1 mM, 16 hr after removal): 0
Vasoconstriction activity (total score of 4 tests) ([3]; 1 mM, 18 hr after removal): 0
Vasoconstriction activity (total score of 4 tests) ([3]; 1 mM, 24 hr after removal): 0
Vasoconstriction activity alone (in words) ([3]; listed as HC): do not yield any detectable activity; also recorded: no activity

IC50 (transcortin (CBG); [4]): 36 ± 11 nM
Compound: C[C@]12C=CC(=O)C=C1CCC1C2C(=O)C[C@@]2(C)C1CC[C@]2(O)C(=O)CO (stereo partly shown) [Prednisone, prednisone]

Compound: CCCC1O[C@@H]2C[C@H]3[C@@H]4CCC5=CC(=O)C=C[C@]5(C)[C@H]4[C@@H](O)C[C@]3(C)[C@]2(C(=O)CO)O1 (stereo partly shown) [Budesonide, 22R, Budesonide]
logP [1]: 3.24

Compound: C[C@]12C=CC(=O)C=C1CC[C@@H]1[C@@H]2[C@@H](O)C[C@@]2(C)[C@H]1C[C@H]1O[C@@H](C3CCCCC3)O[C@]12C(=O)CO [Ciclesonide, act. metab.]
IC50 (transcortin (CBG); [5]): > 10000 nM

Compound: C[C@]12CCC(=O)C=C1CC[C@@H]1[C@@H]2CC[C@@]2(C)[C@H]1CC[C@]2(O)C(=O)CO [11-deoxycortisol]
Class [2]: 1
Log 1/K [2]: −7.881
